Assay [1] has as its system MT330. Put plainly: Induction of cell death in human MT330 cells assessed as reduction in cell viability at 2 uM after 3 days by ELISA. The assay is classed as functional, cell-based. As to conditions: time 3.0 day. On the technique in general: An ELISA detects its analyte on a solid surface through an enzyme-linked reagent.
Assay [2] deals with MT330. Put plainly: Induction of cell death in human MT330 cells assessed as reduction in cell viability at 2 uM combination with TMZ after 3 days by ELISA. Format: functional, cell-based. As to conditions: time 3.0 day.
Assay [3] concerns LN-229. Put plainly: Antiproliferative activity against human LN-229 cells assessed as reduction in cell viability at 80 uM up to 7 days by incucyte live cell assay. Format: functional, cell-based. As to conditions: time <= 7.0 day.
The test system of assay [4] is MT330. Put plainly: Induction of cell death in human MT330 cells assessed as reduction in cell viability at 50 uM after 3 days by ELISA. Format: functional, cell-based. As to conditions: time 3.0 day.
The test system of assay [5] is MT330. Put plainly: Anti-tumor activity against human MT330 cells xenografted in NSG mouse assessed as reduction in tumor growth at 10 mg/kg, ip for alterate days combination with TMZ and measured after 8 weeks. Format: functional, organism-based. (In xenograft studies the graft and the host belong to different species.)
The test system of assay [6] is LN-229. Put plainly: Antiproliferative activity against human LN-229 cells assessed as reduction in cell viability at 2 uM combination with TMZ up to 7 days by incucyte live cell assay. The assay is classed as functional, cell-based. As to conditions: time <= 7.0 day.
The test system of assay [7] is LN-229. Put plainly: Antiproliferative activity against human LN-229 cells assessed as reduction in cell viability at 2 uM up to 7 days by incucyte live cell assay. The note with it: time <= 7.0 day. Format: functional, cell-based.
The subject of assay [8] is MT330. The experiment in a line: Anti-tumor activity against human MT330 cells xenografted in NSG mouse assessed as reduction in tumor growth at 10 mg/kg, ip for alterate days combination with TMZ and measured after 2 weeks. The assay is classed as functional, organism-based.
Assay [9] addresses SWI/SNF-related matrix-associated actin-dependent regulator of chromatin subfamily A member 4 (Homo sapiens) (UniProt P51532). The experiment in a line: Binding affinity to epitope-tagged BRG1 bromodomain (unknown origin) expressed in MT330 cells assessed as thermostability at < 54.2 degC at 30 uM for 2 hrs by […]. The assay is classed as cell-based.

The source made the active and inactive calls. The calls are words filed in the database; no cut-off is given here.

Chain of SWI/SNF-related matrix-associated actin-dependent regulator of chromatin subfamily A member 4 (Homo sapiens) (P51532 whole entry): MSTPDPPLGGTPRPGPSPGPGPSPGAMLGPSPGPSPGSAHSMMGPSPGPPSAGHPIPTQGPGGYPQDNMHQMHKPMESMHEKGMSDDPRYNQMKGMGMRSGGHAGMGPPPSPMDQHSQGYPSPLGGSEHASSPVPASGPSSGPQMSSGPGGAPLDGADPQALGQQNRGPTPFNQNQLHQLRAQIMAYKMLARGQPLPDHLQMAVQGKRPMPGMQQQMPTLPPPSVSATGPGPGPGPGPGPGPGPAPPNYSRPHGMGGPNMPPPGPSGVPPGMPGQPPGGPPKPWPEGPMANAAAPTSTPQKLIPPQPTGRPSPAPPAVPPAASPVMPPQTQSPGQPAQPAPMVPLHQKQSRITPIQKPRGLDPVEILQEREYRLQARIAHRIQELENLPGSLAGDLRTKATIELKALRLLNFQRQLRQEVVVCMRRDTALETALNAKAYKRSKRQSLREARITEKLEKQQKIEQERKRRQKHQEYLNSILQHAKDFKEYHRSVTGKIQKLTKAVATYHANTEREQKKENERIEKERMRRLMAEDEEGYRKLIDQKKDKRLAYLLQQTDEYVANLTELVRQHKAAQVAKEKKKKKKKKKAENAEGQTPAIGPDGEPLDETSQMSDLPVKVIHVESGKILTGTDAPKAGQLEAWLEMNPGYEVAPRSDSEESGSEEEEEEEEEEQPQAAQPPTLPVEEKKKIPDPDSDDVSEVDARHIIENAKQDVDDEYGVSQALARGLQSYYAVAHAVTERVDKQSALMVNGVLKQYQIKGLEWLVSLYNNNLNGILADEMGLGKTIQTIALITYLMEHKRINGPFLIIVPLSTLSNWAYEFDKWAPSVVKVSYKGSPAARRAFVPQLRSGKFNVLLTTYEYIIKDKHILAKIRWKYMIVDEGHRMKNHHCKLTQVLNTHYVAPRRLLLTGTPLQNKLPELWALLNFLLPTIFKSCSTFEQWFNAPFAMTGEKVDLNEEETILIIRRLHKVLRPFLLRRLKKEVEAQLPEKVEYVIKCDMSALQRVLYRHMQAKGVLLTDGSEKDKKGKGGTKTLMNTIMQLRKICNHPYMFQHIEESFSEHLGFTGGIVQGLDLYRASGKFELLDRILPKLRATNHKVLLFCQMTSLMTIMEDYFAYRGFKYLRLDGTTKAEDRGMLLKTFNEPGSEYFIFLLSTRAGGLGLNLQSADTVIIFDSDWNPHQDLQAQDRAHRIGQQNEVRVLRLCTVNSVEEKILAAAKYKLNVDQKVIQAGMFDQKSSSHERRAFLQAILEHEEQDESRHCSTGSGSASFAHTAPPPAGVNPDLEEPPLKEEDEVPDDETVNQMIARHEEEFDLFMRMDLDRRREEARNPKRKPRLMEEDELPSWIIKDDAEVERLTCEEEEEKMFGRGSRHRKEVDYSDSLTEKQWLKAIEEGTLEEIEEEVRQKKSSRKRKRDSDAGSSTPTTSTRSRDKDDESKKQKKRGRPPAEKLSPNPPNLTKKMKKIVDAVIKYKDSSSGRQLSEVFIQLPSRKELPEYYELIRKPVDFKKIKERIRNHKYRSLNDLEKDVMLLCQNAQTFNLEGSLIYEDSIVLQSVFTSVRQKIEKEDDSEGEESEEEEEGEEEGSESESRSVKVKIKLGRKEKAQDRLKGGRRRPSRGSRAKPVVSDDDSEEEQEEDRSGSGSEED

`COc1ccc(N2C[C@H]3C[C@@H]2CN3/C=C/C(=O)c2ccccc2Cl)cc1`: the result in assay [1] and in assay [2] was Active.
With `Cn1nnc2c(C(N)=O)ncn2c1=O`, the result in [3] and in assay [4] was Active.
For `O=C(/C=C/N1C[C@H]2C[C@@H]1CN2c1ccccn1)c1ccc(Cl)cc1O`, the result in assay [1] and in assay [2] was Active.
With `O=C(/C=C/N1C[C@H]2C[C@@H]1CN2c1ccc(F)cc1)c1ccccc1`, the outcome in assay [1], in assay [2], in assay [6] and in assay [7] was Active. The TGI entry in assay [5] and in [8] was “Active” each time.
For the compound `O=C(/C=C/N1C[C@H]2C[C@@H]1CN2c1ccccn1)c1cc(F)ccc1O`, the outcome in assay [1] and in assay [2] was Active.
With `O=C(/C=C/N1C[C@H]2C[C@@H]1CN2c1ccccn1)c1cc(Br)ccc1O`, the result in assay [1] and in assay [2] was Active.
For `O=C(/C=C/N1C[C@H]2C[C@@H]1CN2c1ccc(F)cc1)c1ccccc1Cl`, the result in [1] and in assay [2] was Active.
Take `O=C(/C=C/N1C[C@H]2C[C@@H]1CN2c1ccc(F)cc1)c1ccccc1O`: the outcome in assay [1] and in assay [2] was Active.
For `O=C(/C=C/N1C[C@H]2C[C@@H]1CN2c1ccccn1)c1cc(Br)cc(Br)c1O`, the outcome in assay [1], in assay [2], in [6] and in [7] was Active. Besides, the TGI result in assay [5] and in assay [8] was “Active” in each case.
Consider `COc1ccc(N2C[C@H]3C[C@@H]2CN3/C=C/C(=O)c2cc(F)ccc2O)cc1`, for which the outcome in assay [1] and in assay [2] was Active.
As to `COc1ccc(N2C[C@H]3C[C@@H]2CN3/C=C/C(=O)c2ccccc2O)cc1`, the result in assay [1] and in assay [2] was Active.
Regarding `O=C(/C=C/N1C[C@H]2C[C@@H]1CN2c1ccccn1)c1ccccc1O`, the outcome in assay [1], in assay [2], in [9], in [6] and in assay [7] was Active. Besides, the TGI entry in assay [5] and in assay [8] was “Active” throughout.
As for `O=C(/C=C/N1C[C@H]2C[C@@H]1CN2c1ccccn1)c1ccccc1Cl`, the result in [1] and in assay [2] was Active.
In the case of `O=C(/C=C/N1C[C@H]2C[C@@H]1CN2c1ccc(F)cc1)c1cc(F)ccc1O`, the outcome in [1] and in assay [2] was Active.

The values above are taken from ChEMBL document CHEMBL5143541, “Novel structural-related analogs of PFI-3 (SRAPs) that target the BRG1 catalytic subunit of the SWI/SNF complex increase the activity of temozolomide in glioblastoma cells” (Bioorg Med Chem, 2022).
